Several values for one entry are separate records, joined by “and”; a condition that tells them apart may be missing. Equal entries are not always repeated. Entries after “also recorded” stand apart in the source; their conditions may differ.
Experiments:
[1] = Preliminary assessment of pharmacokinetics in mice; type: in vivo, CD-1 mice
Protocol: Dosing Regimen 9 CD-1 mice, male, weighing 20-26 g, were randomly divided into 3 groups with 3 mice in each group. The test compounds were administered intragastric, intravenously or intraperitoneally according to the following protocol. The mice were fasted for 12 h before the test and drank water freely. Food was consumed uniformly 2 h after administration. [table] The intragastric administration solution was prepared with DMSO/0.5% HPMC(5/95, v/v) to the final concentration. Intravenous and intraperitoneal administration solution was formulated with DMSO/PEG300/EtOH/NaCl(5/40/5/50, v/v/v). The sample of the administration solution was left (50 μL of the solution was mixed with 50 μL of DMSO before and after the administration, respectively) for test. The drug was given according to the above dose, the time of administration was recorded, and 20 μL of blood was taken from the femoral plexus of mice at the above set time points and placed in heparinized tubes. The blood was immediately centrifuged at 11000 rpm for 5 min. 10 μL of plasma was immediately and accurately sucked into a centrifuge tube prefilled with 100 μL of PK-IS solution (prepared with methanol: acetonitrile (1:1,v/v)), well mixed, and freezed at −20° C. for test.

[2] = test system: GAN diet-induced NASH mouse model; assay: In vivo anti-obesity, insulin resistance, NASH pharmacological activity test; design: species or system C57BL/6 mice
Excerpt: In this experiment, we investigated the effects of long-term oral administration of compound A1 on obesity, insulin resistance, hepatic lipid accumulation, inflammation and fibrosis in mice with a triple phenotype of obesity, insulin resistance and NASH induced by high fat, high cholesterol and high fructose (Gubra amylin, GAN).
Animal experiment: Male C57BL/6 mice were fed with GAN diet to induce the NASH model, and 12 weeks after modeling, the mice were randomly divided into 3 groups: low-fat diet control group (LFD, n=6), model control group (Model, n=10), and A1 group (10 mg/kg, n=10), and administered by gavage at a dose of 10 mg/kg and a volume of 10 mL/kg, once a day. During the period of administration, the food intake and body weight of animals were monitored; after 10 weeks of administration, glucose tolerance test (GTT) and insulin tolerance test (ITT) were performed; after 11 weeks of administration, fasting glucose and insulin were measured; after 12 weeks of administration, core body temperature and energy metabolism were measured; after 15 weeks of administration, body composition of mice was measured, and mice were sacrificed by dislocation after blood sampling via the posterior ocular venous plexus, and liver, subcutaneous fat, epididymal fat and brown fat were weighed, part the liver was fixed in 4% paraformaldehyde, and all tissues and serum were stored at −80° C. This experiment evaluated whether the compounds have the effect of weight loss by detecting energy metabolism, body composition, and fat weight of mice; whether the compounds have the effect of improving insulin resistance by GTT, ITT, detecting random blood glucose, fasting blood glucose and fasting insulin, and calculating HOMA-IR index; whether the compounds have the effect of […] by detecting serum liver function indexes ALT, AST, triglyceride, total cholesterol (T-CHO), LDL-C, HDL-C levels in serum, triglyceride, T-CHO, and hydroxyproline (characteristic amino acids of collagen) levels in liver, and by measuring mRNA expression levels of fatty acid ab initio synthesis and transport related genes (Srebp1c, Sed1, Fasn, Acaca, Cd36),β-oxidative metabolic pathways (Ppara, Cyp4A1,Cpt1b,Acot1,Acox1), inflammation related genes (Tnfa, Il1b, Casp1, Nlrp3, Pycard, Panx1, Cel2, Cel3) and fibrosis-related genes (Asma, Tgfb, Col1A1, Col3A1 , Col4A1 , Col4a2, Col5a2) and liver pathological changes (H&E staining, Oil Red O staining and Sirius Scarlet staining) and other indicators to evaluate whether the compounds have the effect of alleviating the disorder of lipid metabolism, inflammation and fibrosis in the pathological state of NASH.

[3] = 10 mg/kg gavage once a day, 15 weeks
[4] = 10 mg/kg gavage once a day, after 10 weeks
[5] = 10 mg/kg gavage once a day, after 11 weeks
[6] = 10 mg/kg gavage once a day, vs Model group
[7] = H&E-stained liver pathology sections, 10 mg/kg
[8] = liver, 10 mg/kg gavage once a day
[9] = overall statement, long-term administration

SMILES: CC(C)Oc1ccc(-c2nc(-c3ccc(CN4CC(C(=O)O)C4)c4ccccc34)no2)cc1C#N.Cl [Compound A1, 1-((4-(5-(3-cyano-4-isopropoxyphenyl)-1,2,4-oxadiazol-3-yl)naphthalen-1-yl)methyl) azetidine-3-carboxylic acid hydrochloric acid]
- Concentration of A1 Drug in Plasma of Mice ([1]; title: intraperitoneal 20 mg/kg, 24.0 h, individual animals 1-3): 3.80 ng/mL
- Concentration of A1 Drug in Plasma of Mice ([1]; title: oral 2 mg/kg, 0.05 h, individual animals 4-6, 2 mg/kg): 1521 ng/mL and 2513 ng/mL
- Concentration of A1 Drug in Plasma of Mice ([1]; title: oral 2 mg/kg, 0.25 h, individual animals 4-6, 2 mg/kg): 572 ng/mL and 1021 ng/mL
- Concentration of A1 Drug in Plasma of Mice ([1]; title: oral 2 mg/kg, 0.75 h, individual animals 4-6, 2 mg/kg): 113 ng/mL and 216 ng/mL
- Concentration of A1 Drug in Plasma of Mice ([1]; title: oral 2 mg/kg, 2.00 h, individual animals 4-6, 2 mg/kg): 39.5 ng/mL and 60.6 ng/mL
- Concentration of A1 Drug in Plasma of Mice ([1]; title: oral 2 mg/kg, 4.00 h, individual animals 4-6, 2 mg/kg): 8.60 ng/mL and 11.5 ng/mL and 5.20 ng/mL
- Concentration of A1 Drug in Plasma of Mice ([1]; title: oral 2 mg/kg, 8.00 h, individual animals 4-6, 2 mg/kg): 8.70 ng/mL and 2.10 ng/mL and 1.10 ng/mL
- Concentration of A1 Drug in Plasma of Mice ([1]; title: oral 2 mg/kg, 24.0 h, individual animals 4-6, 2 mg/kg): 0.800 ng/mL and 0.500 ng/mL
- HOMA-IR index ([2]; 10 mg/kg gavage once a day): significantly reduced
- energy metabolism and thermogenesis ([2]; 10 mg/kg gavage once a day): increasing energy metabolism and promoting thermogenesis
- food intake ([2]; 10 mg/kg gavage once a day): without affecting
- liver T-CHO [2, 3]: significantly reduced
- liver hydroxyproline [2, 3]: significantly reduced
- liver triglycerides [2, 3]: significantly reduced
- liver weight [2, 3]: significantly reduced
- liver-to-body ratio [2, 3]: significantly reduced
- serum ALT [2, 3]: significantly reduced
- serum AST [2, 3]: significantly reduced
- serum HDL-C [2, 3]: significantly reduced
- serum LDL-C [2, 3]: significantly reduced
- serum T-CHO [2, 3]: significantly reduced
- serum triglycerides [2, 3]: significantly reduced
- glucose tolerance (GTT) [2, 4]: significantly improved
- insulin sensitivity (ITT) [2, 4]: significantly improved
- fasting glucose [2, 5]: significantly reduced
- fasting insulin [2, 5]: significantly reduced
- body fat content [2, 6]: reduced
- body weight gain [2, 6]: significantly slowed down
- NAS scores [2, 7]: significantly decreased
- lipid accumulation in the liver [2, 7]: ameliorating (but not significant) effect
- liver ballooning degeneration and inflammation [2, 7]: significantly alleviated
- liver lipid accumulation ([2]; Oil Red O stained sections, mainly by reducing lipid droplet size, 10 mg/kg): significantly reduced
- liver collagen deposition ([2]; Sirius Scarlet stained sections, 10 mg/kg): significantly reduced
- mRNA expression of fatty acid oxidation-related genes (Ppara, Cyp4A1, Acot1, Acox1) [2, 8]: significantly upregulated
- mRNA expression of fibrosis-related genes (Asma, Tgfb, Col1A1, Col3A1, Col5a2) [2, 8]: downregulated
- mRNA expression of inflammation genes (Tnfa, Il1b, Casp1, Pycard, Ccl2, Ccl3) [2, 8]: downregulated
- serological and hepatic biochemical indexes ([2]; overall statement, FIG. 3): improved
- hepatic lipid metabolism disorders, inflammation and fibrosis ([2]; overall statement, FIG. 4): improved
- effect on NASH [2, 9]: significant alleviating effect
- insulin resistance (symptoms) [2, 9]: significantly alleviate; also recorded: alleviated
- obesity (symptoms) [2, 9]: significantly alleviate; also recorded: alleviated

From patent US20240208954A1, “OXADIAZOLE COMPOUND, PREPARATION METHOD THEREFOR, PHARMACEUTICAL COMPOSITION AND USE THEREOF” (SHANGHAI INSTITUTE OF MATERIA MEDICA, CHINESE ACADEMY OF …, priority 2020, published 2024)
